The target in one data set is PD1/PDL1 interaction (Homo sapiens, UniProt Q15116). As to the kind of experiment: PD1 ImmunoBlocking ELISA. It is filed as biochemical. Background: An ELISA detects its analyte on a solid surface through an enzyme-linked reagent.
Data set [1] can be described thus: Thermodynamic solubility measurement. It is filed as physicochemical. The following applies: potassium phosphate buffer, pH 7.4, aqueous buffer, thermodynamic from solid.
In a further data set the target is PD1 (Homo sapiens, UniProt Q15116). As to the kind of experiment: UV/Vis-colorimetric PDL1-competitive binding kinetics assay.
Data set [2] can be described thus: Far-UV CD spectroscopy, thermal denaturation. The conditions noted are these: calculated at 293K from best-fitted melting curves of thermal denaturation recorded by CD; phosphate buffer 15 mM, pH 6.5; RC = random coil. The class given is physicochemical.

Several values for one entry are separate records, joined by “and”; a condition that tells them apart may be missing. Identical values can stand only once. Ends that are not written are not given here.

The source of these data is publication PMC10029098 (Chembiochem : a European journal of chemical biology, 2022).

As a reminder, the EC50 is the concentration that produces a half-maximal response. The thermodynamic solubility is the concentration in solution at equilibrium with solid. As a reminder, the Ki is a dissociation constant, usually derived from enzyme kinetics or from competition with a known ligand. Higher therefore signals lower affinity.

PD1/PDL1 interaction, sequence (Q15116 25-167 limits assumed): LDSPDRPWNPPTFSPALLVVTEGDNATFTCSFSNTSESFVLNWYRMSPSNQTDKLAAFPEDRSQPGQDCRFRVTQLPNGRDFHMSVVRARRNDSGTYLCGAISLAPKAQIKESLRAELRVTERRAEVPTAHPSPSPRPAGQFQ
PD1, sequence (Q15116 25-167 limits assumed): as above

Consider RWVARRDYRFDMGFDYWVWE [1e], for which the EC50 on PD1/PDL1 interaction is < 0.6 µM and 0.29 µM. In addition, the thermodynamic solubility in data set [1] stood at 900 ± 100 µM. For the same sequence, the Ki at PD1 is 0.041 µM.

In data set [1], RWVARRDYRGDMGFDYWVWE [1d] yielded a solubility (thermodynamic) of 3400 ± 100 µM.

In the case of RWVWRRDYRFDMGFDYWVWE [2c], the “%-Fold, hairpin folded fraction (χF)” value in data set [2] is given as 54 ± 1%.

Turning to RWCARRDYRFDMGFDYWGWE [1c], on PD1/PDL1 interaction, the EC50 was 3.7 ± 1.02 µM. This sequence also registered a solubility (thermodynamic) in data set [1] of 300 ± 100 µM.

Regarding RWVWRRDYRGDMGFDYWVWE [2b], in data set [1], the solubility (thermodynamic) turned out to be 600 ± 100 µM. The “%-Fold, hairpin folded fraction (χF)” value in data set [2] is 81 ± 1%.

Sequence RWVWGGGGKKGGGGWVWE [2a] yielded a solubility (thermodynamic) in data set [1] of 5800 ± 200 µM. For the same sequence, in data set [2], the “%-Fold, hairpin folded fraction (χF)” value was 87 ± 1%.
